# Reference: article PMC9865501, “Design and Synthesis of Scopoletin Sulfonate Derivatives as Potential Insecticidal Agents” (Molecules, 2023)
# pIC50: −log10 of the molar value. Like-named read-outs stand apart in the source and are kept apart here.
# How the values were obtained:
# [1] = tested on: T. cinnabarinus; test: Acaricidal activity against T. cinnabarinus (leaf spray on broad bean, 72 h); assay type: in vivo, Tetranychus cinnabarinus; details: for LC50: Tetranychus cinnabarinus; for acaricidal toxicity relative to compound 5: compared with compound 5
# Experimental: An acaricidal activity assay of the test compounds against mites was conducted according to procedures outlined in the literature. […] The stock solution was then diluted to a series of working concentrations with 1% Tween 80 to obtain the test solutions. Subsequently, the leaves of two-leaf-stage broad beans were inoculated with 150–200 female adult T. cinnabarinus mites and reared in a greenhouse (26 ± 1 °C, 75–80% RH, 16 h light and 8 h dark alternatively) for 8 h. The test solution of the compound was then evenly sprayed on these leaves, which were then cultivated in the greenhouse for 72 h. In the blank control group, Tween 80 (1%) was used instead of the treatment solution. Cyetpyrafen (CAS NO. 1253429-01-4) was used as a positive control. Each treatment was repeated three times. The dead insects were recorded under a stereoscope, and the corrected mortalities of mites treated with the compounds were calculated.
# [2] = Toxicity to brine shrimp Artemia; assay type: in vivo, Artemia salina; details: Artemia salina (brine shrimp), in vivo, other: immersion in test solution, read-out: Lethal activity to Artemia LC50
# Experimental: (§1) The toxicity of the title compounds to the brine shrimp A. salina was evaluated according to the reported method. […] Subsequently, approximately 50 hatched (10 h instar) brine shrimp were transferred into each pore of a 24-well plate filled with the test solutions. Finally, the brine shrimp were reared in an illumination incubator (28 ± 1 °C, 12 h light and 12 h dark alternatively) for 24 h. DMSO—1% Tween 20 was used as a blank control. Each treatment was conducted in triplicate. The dead insects were recorded under a stereoscope, and the corrected mortalities of A. salina treated with the compounds were calculated.
# [3] = biological target: T1, AChE (Electrophorus electricus, UniProt O42275); test: In vitro AChE inhibition (ELISA kit); assay type: biochemical, electric eels
# T1 construct: purchased Sigma–Aldrich Chemie GmbH (Buchs, Switzerland)
# T1 sequence (O42275 24-633): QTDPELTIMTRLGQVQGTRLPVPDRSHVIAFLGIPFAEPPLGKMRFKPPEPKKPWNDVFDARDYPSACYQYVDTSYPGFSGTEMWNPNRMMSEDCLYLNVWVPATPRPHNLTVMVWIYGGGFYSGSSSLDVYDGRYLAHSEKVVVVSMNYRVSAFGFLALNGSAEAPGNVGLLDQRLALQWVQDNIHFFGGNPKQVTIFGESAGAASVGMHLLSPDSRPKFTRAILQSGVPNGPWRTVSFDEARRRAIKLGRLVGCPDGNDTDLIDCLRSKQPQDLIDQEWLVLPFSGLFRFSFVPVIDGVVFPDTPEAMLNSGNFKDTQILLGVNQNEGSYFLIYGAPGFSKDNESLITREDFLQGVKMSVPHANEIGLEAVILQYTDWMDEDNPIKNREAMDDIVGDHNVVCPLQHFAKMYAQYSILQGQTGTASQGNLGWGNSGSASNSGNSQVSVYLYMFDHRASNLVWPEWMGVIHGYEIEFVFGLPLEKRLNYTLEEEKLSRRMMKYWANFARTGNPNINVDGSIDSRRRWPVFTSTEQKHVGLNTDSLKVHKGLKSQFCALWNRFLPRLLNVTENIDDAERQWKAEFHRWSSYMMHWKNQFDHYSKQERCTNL
# Experimental: The effects of the title compounds on the in vitro AChE activity were evaluated using ELISA technology. AChE derived from electric eels was purchased from Sigma–Aldrich Chemie GmbH (Buchs, Switzerland). Briefly, the AChE was preincubated with different concentrations (500, 250, 125, 62.5, 31.25, 15.625, and 7.8125 μg/mL) of the compounds in PBS solution. Then, the AChE activities after incubation were measured using the corresponding ELISA kit according to the manufacturer’s instructions (Jiancheng, Nanjing, China). The detection was performed using a multifunctional microplate reader (SpectraMax® M2e, Thermo Scientific, Waltham, MA, USA).
# [4] = tested on: A. salina; test: Toxicity to brine shrimp Artemia; assay type: in vivo, Artemia salina
# Experimental: as §1
# [5] = 72 h, Table S1, read-out: Acaricidal activity LC50
# [6] = 72 h, main text and Figure 5, read-out: LC50 against T. cinnabarinus
Structure (SMILES),"LC50 [1, 5]",LC50 at 6 h [2],LC50 at 12 h [2],pIC50 [3],acaricidal toxicity relative to compound 5 [1],"LC50 [1, 6]","LC50 against T. cinnabarinus ([1]; 72 h, main text and Figure 5)",Lethal activity to Artemia LC50 ([4]; 6 h),Lethal activity to Artemia LC50 ([4]; 12 h),AChE inhibition IC50 [3]
COc1cc2cc(-c3ccc(F)cc3)c(=O)oc2cc1OS(=O)(=O)c1ccc(Cl)cc1 [Compound 5d],99 µg/mL,72.8 µg/mL,33.7 µg/mL,3.83,,,,,,
COc1cc2cc(-c3ccc(F)cc3)c(=O)oc2cc1OS(=O)(=O)c1ccc(Br)cc1 [Compound 5e],80 µg/mL,114 µg/mL,79.5 µg/mL,3.85,,,,,,
COc1cc2cc(-c3ccc(F)cc3)c(=O)oc2cc1OS(=O)(=O)c1ccc(C(F)(F)F)cc1 [Compound 5f],104 µg/mL,71.5 µg/mL,39.9 µg/mL,3.62,,,,,,
COc1cc2cc(-c3ccc(F)cc3)c(=O)oc2cc1OS(=O)(=O)c1ccc([N+](=O)[O-])cc1 [Compound 5g],68 µg/mL,86.6 µg/mL,53.6 µg/mL,3.58,approximately 2 times,,,,,
COc1cc2cc(-c3ccc(F)cc3)c(=O)oc2cc1OS(=O)(=O)c1cc(Cl)c(Cl)cc1Cl [Compound 5h],96 µg/mL,106 µg/mL,57.6 µg/mL,3.70,,,,,,
COc1cc2cc(-c3ccc(F)cc3)c(=O)oc2cc1OS(=O)(=O)c1cccs1 [Compound 5i],73 µg/mL,99.8 µg/mL,56.7 µg/mL,3.59,approximately 2 times,,,,,
COc1cc2cc(-c3ccc(F)cc3)c(=O)oc2cc1OS(=O)(=O)c1ccc2ccccc2c1 [Compound 5j],,77.9 µg/mL,29.7 µg/mL,3.94,~5 times,20 µg/mL,,,,
"COc1cc2cc(C(C)=O)c(=O)oc2cc1O [Compound 6, 3-acetyl-7-hydroxy-6-methoxy-2H-chromen-2-one]",81 µg/mL,56.5 µg/mL,35.6 µg/mL,3.40,,81 to 116 µg/mL,,,,
COc1cc2cc(C(C)=O)c(=O)oc2cc1OS(=O)(=O)c1ccc(Cl)cc1 [Compound 6d],159 µg/mL,45.5 µg/mL,27.9 µg/mL,3.45,,,,,,
COc1cc2cc(C(C)=O)c(=O)oc2cc1OS(=O)(=O)c1cc(Cl)c(Cl)cc1Cl [Compound 6h],107 µg/mL,48.5 µg/mL,33.9 µg/mL,3.56,,,,,,
"COc1cc2cc(C(=O)Nc3ccc(Br)cc3)c(=O)oc2cc1O [Compound 7, 3-(4-bromoaniline formyl)-7-hydroxy-6-methoxy-2H-chromen-2-one]",82 µg/mL,52.3 µg/mL,32.3 µg/mL,3.71,,81 to 116 µg/mL,,,,
COc1cc2cc(C(=O)Nc3ccc(Br)cc3)c(=O)oc2cc1OS(=O)(=O)c1ccccc1 [Compound 7a],117 µg/mL,57.6 µg/mL,33.6 µg/mL,3.65,,,,,,
COc1cc2cc(C(=O)Nc3ccc(Br)cc3)c(=O)oc2cc1OS(=O)(=O)c1ccc(Cl)cc1 [Compound 7d],89 µg/mL,54.2 µg/mL,39.4 µg/mL,3.76,,,,,,
"CCn1nc(C)cc1/C(OC(=O)C(C)(C)C)=C(/C#N)c1ccc(C(C)(C)C)cc1 [Cyetpyrafen, reference compound]",,,,,,,15.0 µg/mL,11.7 µg/mL,6.13 µg/mL,14.06 ± 10.20 µg/mL
